Source: patent publication US20200231562A1, “NOVEL MACROLIDE ANTIBIOTICS” (HELMHOLTZ-ZENTRUM FÜR INFEKTIONSFORSCHUNG GMBH, priority 2014, published 2020)
In brackets after ≈: the same amount, converted by molar mass. Where two headings read alike, the source gives them in different places.

Columns and labels:
Format in all cases: cell-based
[1] = system: Candida albicans ATCC14053; test: Agar diffusion assay; conditions: 50 μL of 0.5 mg in 1 mL methanol per 7 mm hole; n.a. = no activity observed
Method: (§1) Antimicrobial activities of the gulmirecins were determined in a primary screen against Bacillus subtilis ATCC 6633, Staphylococcus aureus SG511, Staphylococcus auricularis DSM 20609, Mycobacterium vaccae IMET 10670, Pseudomonas aeruginosa K799/61, Escherichia coli SG458, Sporobolomyces salmonicolor SBUG 549, Candida albicans ATCC14053 and Penicillium notatum JP 36. To this end, holes with 7 mm diameter were aseptically punched in the respective agar medium. Subsequently, the agar plates were inoculated with the test organisms. 0.5 mg of every test compound was dissolved in 1 mL of methanol, and 50 μL of this solution was transferred to a single hole. Ciprofloxacin and amphotericin B served as positive controls. After evaporation of the solvent, the agar plates were incubated depending on the growth conditions of the test organisms. […] The test results are shown in Table 6 below, wherein the given values represent the diameters of the respective inhibition zone in the agar diffusion assay.

[2] = system: Penicillium notatum JP 36; test: Agar diffusion assay; conditions: 50 μL of 0.5 mg in 1 mL methanol per 7 mm hole; n.a. = no activity observed
Method: as §1

[3] = system: Sporobolomyces salmonicolor SBUG 549; test: Agar diffusion assay; conditions: 50 μL of 0.5 mg in 1 mL methanol per 7 mm hole; n.a. = no activity observed
Method: as §1

Bacillus subtilis DSM 10 = test: MIC by microbroth dilution; conditions: Bacillus subtilis, DSM10, 16 h, 30° C., n.i. = no inhibition up to 67 μg/ml, read-out: MIC
Method: (§2) Bacterial strains. Bacterial wildtype strains used in susceptibility assays were either part of HZI's strain collection or purchased from the German Collection of Microorgansims and Cell Cultures (Deutsche Sammlung von Mikroorganismen und Zellkulturen, DSMZ).
(§3) Minimum inhibitory concentration (MIC) was determined by microbroth dilution. In brief, overnight cultures of bacteria (EBS medium) were diluted to OD600 0.01. Disciformycin A (1) or B (2) dissolved in DMSO was added directly to the cultures in 96-well plates (Sarstedt, flat bottom) in duplicate and the compound was tested in serial dilution. […] After 16 h incubation at 900 rpm and 30° C. on a microplate shaker (Titramax, Heidolph) absorbance at 600 nm was measured using a microplate reader (POLARstar Omega, BMG Labtech). MIC values were determined by sigmoidal curve fitting.

[4] = system: Chromobacterium violaceum DSM 30191; test: MIC by microbroth dilution; conditions: 16 h, 30° C., n.i. = no inhibition up to 67 μg/ml
Method: as §2, §3

[5] = system: Escherichia coli DSM 1116; test: MIC by microbroth dilution; conditions: 16 h, 30° C., n.i. = no inhibition up to 67 μg/ml
Method: as §2, §3

[6] = system: Micrococcus luteus DSM 20030; test: MIC by microbroth dilution; conditions: 16 h, 30° C., n.i. = no inhibition up to 67 μg/ml
Method: as §2, §3

[7] = system: Mycobacterium diemhoferi DSM 43524; test: MIC by microbroth dilution; conditions: Mycobacterium, DSM43524, 16 h, 30° C., n.i. = no inhibition up to 67 μg/ml, read-out: MIC
Method: as §2, §3

[8] = system: Mycobacterium sp. DSM 43270; test: MIC by microbroth dilution; conditions: 16 h, 30° C., n.i. = no inhibition up to 67 μg/ml
Method: as §2, §3

[9] = system: Nocardioides simplex DSM 20130; test: MIC by microbroth dilution; conditions: Pimelobacter simplex, DSM20130, 16 h, 30° C., n.i. = no inhibition up to 67 μg/ml, read-out: MIC
Method: as §2, §3

[10] = system: Paenibacillus polymyxa DSM 36; test: MIC by microbroth dilution; conditions: Paenibacillus polymyxa, DSM36, 16 h, 30° C., n.i. = no inhibition up to 67 μg/ml, read-out: MIC
Method: as §2, §3

[11] = system: Pseudomonas aeruginosa DSM 50071; test: MIC by microbroth dilution; conditions: 16 h, 30° C., n.i. = no inhibition up to 67 μg/ml
Method: as §2, §3

[12] = system: Staphylococcus aureus (MRSA) DSM-11822; test: MIC by microbroth dilution; conditions: microbroth dilution, 16 h, 30° C., n.i. = no inhibition up to 67 μg/ml
Method: as §2, §3

[13] = system: Staphylococcus aureus DSM 346; test: MIC by microbroth dilution; conditions: Staphylococcus aureus, DSM346, 16 h, 30° C., n.i. = no inhibition up to 67 μg/ml, read-out: MIC
Method: as §2, §3

[14] = system: Staphylococcus aureus Mu50 (MRSA/VRSA) ATCC 700699; test: MIC by microbroth dilution; conditions: 16 h, 30° C., n.i. = no inhibition up to 67 μg/ml
Method: as §2, §3

[15] = system: Staphylococcus aureus N315 (MRSA); test: MIC by microbroth dilution; conditions: 16 h, 30° C., n.i. = no inhibition up to 67 μg/ml
Method: as §2, §3

[16] = system: Staphylococcus aureus Newman; test: MIC by microbroth dilution; conditions: 16 h, 30° C., n.i. = no inhibition up to 67 μg/ml
Method: as §2, §3

[17] = system: Staphylococcus camosus DSM 20501; test: MIC by microbroth dilution; conditions: 30° C., n.i. = no inhibition up to 67 μg/ml
Method: as §2, §3

[18] = system: Chinese hamster ovary CHO-K1 cells (ACC-110); test: Cytotoxicity (MTT) assay, antiproliferative activity; conditions: Cricetulus griseus, 120 h, CHO-K1, 5 d incubation
Method: (§4) Half maximal inhibitory concentrations (IC50) in μg/ml of disciformycin A (1) and disciformycin B (2) for inhibiting the proliferative activity of human HCT-116 colon carcinoma cells, mouse fibroblast cells L929, and Chinese hamster ovary CHO-K1 cells were determined. Cells were seeded at 6×10^3 cells per well of 96-well plates (Corning CellBind®) in complete medium (180 μl) and directly treated with disciformycin dissolved in DMSO in serial dilution. The compound was tested in duplicate, as well as the internal solvent control. After 5 d incubation, 5 mg/ml MTT in PBS (20 μL) was added per well and it was further incubated for 2 h at 37° C. The medium was then discarded and cells were washed with PBS (100 μl) before adding 2-propanol/10N HCl (250:1, v/v; 100 μl) in order to dissolve formazan granules. The absorbance at 570 nm was measured using a microplate reader (EL808, Bio-Tek Instruments Inc.). The amount of formazan, i.e. relative absorption, is thereby proportional to the number of actively proliferating cells.

[19] = system: HCT-116 colon carcinoma cells (ACC-581); test: as above; conditions: Homo sapiens, 120 h, HCT-116, 5 d incubation
Method: as §4

[20] = system: Mouse fibroblast cells L929 (ACC-2); test: as above; conditions: 120 h, L929, 5 d incubation
Method: as §4

[21] = system: S. aureus N315 wildtype (WT); test: Susceptibility (MIC) of S. aureus N315 wildtype; conditions: Staphylococcus aureus
[22] = system: S. aureus N315 mutant Mt50DscA.1; test: Susceptibility (MIC) of Disciformycin A-resistant mutant; conditions: Staphylococcus aureus
[23] = system: S. aureus N315 mutant Mt50DscA.2; test: as above; conditions: Staphylococcus aureus
[24] = system: S. aureus N315 mutant Mt50DscA.3; test: as above; conditions: Staphylococcus aureus
[25] = system: S. aureus N315 mutant Mt50DscA.4; test: as above; conditions: Staphylococcus aureus
[26] = system: S. aureus N315 mutant Mt50DscA.5; test: as above; conditions: Staphylococcus aureus
[27] = system: S. aureus N315 mutant Mt50DscA.6; test: as above; conditions: Staphylococcus aureus
[28] = system: S. aureus N315 mutant Mt50DscA.8; test: as above; conditions: Staphylococcus aureus
[29] = system: S. aureus N315 Mt50DscA.9; test: as above; conditions: Staphylococcus aureus
[30] = system: S. aureus N315 mutant Mt50DscA.10; test: as above; conditions: Staphylococcus aureus
[31] = system: S. aureus N315 mutant Mt50DscA.11; test: as above; conditions: Staphylococcus aureus
[32] = system: S. aureus Newman in PMA-differentiated human THP-1 cell line (macrophages); test: Intra-macrophage activity
Source text: The PMA-differentiated human THP-1 cell line (macrophages) was used as cellular host for infection with S. aureus Newman at an MOI (multiplicity of infection) of 10. […] Intracellular bacteria were recovered and serial dilutions were streaked out on CASO-Agar for cfu counting. The reference drug rifampicin reduced the number of intracellular bacteria by ca. 4 logs (at 8×MIC).

[33] = system: Bacillus subtilis ATCC 6633; test: Agar diffusion assay; conditions: ATCC6633, 50 μL of 0.5 mg in 1 mL methanol per 7 mm hole, n.a. = no activity observed, read-out: diameter of inhibition zone
Method: as §1

Escherichia coli SG458 = test: Agar diffusion assay; conditions: 50 μL of 0.5 mg in 1 mL methanol per 7 mm hole, n.a. = no activity observed, read-out: diameter of inhibition zone
Method: as §1

[34] = system: Mycobacterium vaccae IMET 10670; test: Agar diffusion assay; conditions: Mycolicibacterium vaccae, IMET10670; 50 μL of 0.5 mg in 1 mL methanol per 7 mm hole; n.a. = no activity observed; read-out: diameter of inhibition zone
Method: as §1

[35] = system: Pseudomonas aeruginosa K799/61; test: Agar diffusion assay; conditions: 50 μL of 0.5 mg in 1 mL methanol per 7 mm hole, n.a. = no activity observed, read-out: diameter of inhibition zone
Method: as §1

[36] = system: Staphylococcus aureus SG511; test: Agar diffusion assay; conditions: 50 μL of 0.5 mg in 1 mL methanol per 7 mm hole, n.a. = no activity observed, read-out: diameter of inhibition zone
Method: as §1

[37] = system: Staphylococcus auricularis DSM 20609; test: Agar diffusion assay; conditions: DSM20609, 50 μL of 0.5 mg in 1 mL methanol per 7 mm hole, n.a. = no activity observed, read-out: diameter of inhibition zone
Method: as §1

[38] = system: methicillin-resistant S. aureus (MRSA); test: Bouillon dilution assay (MIC90); conditions: Staphylococcus aureus, tryptic soy broth, 37° C., 16 h
Method: Before incubation, 3 was added in decreasing concentrations ([…] to 12.5 μg/ml). After incubation, the OD600 was measured. The experiment was run in triplicate. Ciprofloxacin was used as a positive control.

[39] = Staphylococcus aureus, read-out: MIC

C[C@@H]1[C@H](O)[C@@H](C)/C=C/C=C/C=C/C=C/C=C/C=C/C=C/[C@H](O[C@@H]2O[C@H](C)[C@@H](O)[C@H](N)[C@@H]2O)C[C@@H]2O[C@](O)(C[C@@H](O)C[C@@H](O)[C@H](O)CC[C@@H](O)C[C@@H](O)CC(=O)O[C@H]1C)C[C@H](O)[C@H]2C(=O)O [Amphotericin B]
diameter of inhibition zone [1]: 22 mm | diameter of inhibition zone [2]: 18 mm | diameter of inhibition zone [3]: 19 mm

C/C=C(/C)[C@H]1C/C=C(\C)[C@@H](O[C@H]2O[C@H](CO)[C@@H](O)[C@@H]2O)[C@H](OC(=O)CC(C)C)C(=O)/C=C/[C@H](C)C(=O)O1 [Compound 2, disciformycin B]
MIC (Bacillus subtilis DSM 10): 0.83 µg/mL (≈ 1.58 µM) | MIC [4]: n.i. | MIC [5]: n.i. | MIC [6]: n.i. | MIC [7]: 33.3 µg/mL (≈ 63.5 µM) | MIC [8]: n.i. | MIC [9]: 16.6 µg/mL (≈ 31.6 µM) | MIC [10]: 16.6 µg/mL (≈ 31.6 µM) | MIC [11]: n.i. | MIC [12, 39]: 0.6 µg/mL (≈ 1.14 µM) | MIC [12]: 0.6 µg/mL (≈ 1.14 µM) | MIC [13]: 3.3 µg/mL (≈ 6.29 µM) | MIC [14]: 0.6 µg/mL (≈ 1.14 µM) | MIC [14, 39]: 0.6 µg/mL (≈ 1.14 µM) | MIC [15]: 1.2 µg/mL (≈ 2.29 µM) | MIC ([15]; Staphylococcus aureus, MRSA, read-out: MIC): 1.2 µg/mL (≈ 2.29 µM) | MIC [16]: 1.2 µg/mL (≈ 2.29 µM) | MIC ([16]; Staphylococcus aureus, NEWMAN, read-out: MIC): 1.2 µg/mL (≈ 2.29 µM) | MIC ([17]; 16 h): 2.4 µg/mL (≈ 4.57 µM) | MIC ([17]; Staphylococcus, DSM20501, 16 h, read-out: MIC): 2.4 µg/mL (≈ 4.57 µM) | IC50 [18]: > 10 µg/mL | IC50 [19]: > 10 µg/mL | IC50 [20]: > 10 µg/mL | MIC [21]: 1 µg/mL (≈ 1.91 µM) | MIC [22]: > 64 µg/mL | MIC [23]: > 64 µg/mL | MIC [24]: > 64 µg/mL | MIC [25]: > 64 µg/mL | MIC [26]: 16 µg/mL (≈ 30.5 µM) | MIC [27]: > 64 µg/mL | MIC [28]: > 64 µg/mL | MIC [29]: > 64 µg/mL | MIC [30]: > 64 µg/mL | MIC [31]: 32 µg/mL (≈ 61 µM) | reduction of the number of intracellular bacteria ([32]; 18 h, MOI 10, cfu counting, tested at 1×, 4× and 8×MIC): 3 logs | cytotoxicity towards THP-1 host cells ([32]; 18 h treatment of infected macrophages): without causing any apparent cytotoxicity

O=C(O)c1cn(C2CC2)c2cc(N3CCNCC3)c(F)cc2c1=O [Ciprofloxacin, reference compound]
zone of inhibition at 25 µg/hole [33]: 30 mm | zone of inhibition at 25 µg/hole (Escherichia coli SG458): 34 mm | zone of inhibition at 25 µg/hole [34]: 24 mm | zone of inhibition at 25 µg/hole [35]: 38 mm | zone of inhibition at 25 µg/hole [36]: 19 mm | zone of inhibition at 25 µg/hole [37]: 20 mm | MIC90 [38]: 75.4 µM (≈ 25 µg/mL)
